Experimental data reported in patent publication US20180099931A1 (AbbVie S.à.r.l., priority 2016, published 2018).
Like-named read-outs stand apart in the source and are kept apart here.

Biological target: T1, F508delCFTR (Homo sapiens, UniProt P13569, DEL508-508)
T1 construct: expressed in transfected cells; host or cells: CFBE41o- human lung-derived epithelial cells (CFBE4lo-F508delCFTR-HRP), doxycycline-inducible
Test: Cell Surface Expression-Horse Radish Peroxidase (CSE-HRP) Assay;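 for Maximum % activity (with co-corrector): co-corrector and positive control are both the same reference corrector at 2 µM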;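 for Maximum % activity (without co-corrector): percent of the 2 µM on-plate positive control corrector response above DMSO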
Format: cell-based
Settings: CSE-HRP; for Maximum % activity (with co-corrector): with co-corrector (2 μM); for Maximum % activity (with co-corrector) / Emax: maximum at any tested concentration, normalized to on-plate positive control; for Emax: without co-corrector, read-out: Maximum % activity (without co-corrector)

[1] = test compound without co-corrector, read-out: EC50 (without co-corrector)
[2] = with co-corrector (2 μM of 3-[(2R,4R)-4-({[1-(2,2-difluoro-1,3-benzodioxol-5-yl)cyclopropyl]carbonyl}amino)-7-methoxy-3,4-dihydro-2H-chromen-2-yl]benzoic acid), read-out: EC50 (with co-corrector)

T1 sequence (P13569 with tags, fused parts or gaps DEL508-508): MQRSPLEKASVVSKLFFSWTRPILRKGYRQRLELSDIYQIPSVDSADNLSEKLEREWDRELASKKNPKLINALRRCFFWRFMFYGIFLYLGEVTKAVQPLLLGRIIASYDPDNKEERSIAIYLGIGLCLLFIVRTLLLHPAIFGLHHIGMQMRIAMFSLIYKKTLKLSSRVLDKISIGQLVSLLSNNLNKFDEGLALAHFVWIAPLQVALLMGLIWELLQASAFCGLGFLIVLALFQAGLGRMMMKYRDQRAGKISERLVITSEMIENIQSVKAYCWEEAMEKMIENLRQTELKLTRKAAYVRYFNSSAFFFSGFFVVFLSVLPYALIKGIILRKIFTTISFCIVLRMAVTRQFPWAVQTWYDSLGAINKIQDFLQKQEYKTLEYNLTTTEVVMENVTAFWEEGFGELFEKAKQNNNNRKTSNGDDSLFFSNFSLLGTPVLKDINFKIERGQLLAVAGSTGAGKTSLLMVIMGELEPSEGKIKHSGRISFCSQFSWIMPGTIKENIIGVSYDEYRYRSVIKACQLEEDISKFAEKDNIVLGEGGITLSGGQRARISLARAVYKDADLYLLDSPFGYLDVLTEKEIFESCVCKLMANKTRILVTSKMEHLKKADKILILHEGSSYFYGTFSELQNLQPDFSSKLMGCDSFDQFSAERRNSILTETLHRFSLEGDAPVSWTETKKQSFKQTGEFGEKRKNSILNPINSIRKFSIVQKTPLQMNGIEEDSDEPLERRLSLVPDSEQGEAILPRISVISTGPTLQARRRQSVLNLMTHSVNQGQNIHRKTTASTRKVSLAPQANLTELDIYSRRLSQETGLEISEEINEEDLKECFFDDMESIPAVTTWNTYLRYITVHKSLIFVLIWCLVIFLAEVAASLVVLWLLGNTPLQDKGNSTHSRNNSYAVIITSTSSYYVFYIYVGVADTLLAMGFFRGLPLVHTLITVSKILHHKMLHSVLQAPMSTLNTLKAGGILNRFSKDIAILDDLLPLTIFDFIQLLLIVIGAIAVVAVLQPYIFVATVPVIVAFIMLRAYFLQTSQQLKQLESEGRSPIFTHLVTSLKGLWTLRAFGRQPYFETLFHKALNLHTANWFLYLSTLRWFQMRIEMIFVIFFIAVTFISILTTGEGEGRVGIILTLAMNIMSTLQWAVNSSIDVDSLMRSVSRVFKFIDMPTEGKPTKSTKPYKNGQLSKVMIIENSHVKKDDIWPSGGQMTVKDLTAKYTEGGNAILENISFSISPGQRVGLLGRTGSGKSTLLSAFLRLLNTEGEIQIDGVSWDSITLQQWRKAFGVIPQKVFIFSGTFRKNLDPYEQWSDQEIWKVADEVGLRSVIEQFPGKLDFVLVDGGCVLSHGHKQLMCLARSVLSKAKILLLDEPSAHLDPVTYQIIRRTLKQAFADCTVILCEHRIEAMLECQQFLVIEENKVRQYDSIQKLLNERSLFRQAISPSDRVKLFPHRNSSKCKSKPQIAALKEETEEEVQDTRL

Row | SMILES | EC50 [1] [µM] | EC50 [2] [µM] | Maximum % activity (with co-corrector) | Emax [%]
1 | COc1cc(C(F)(F)F)ccc1CN[C@H]1[C@H](C(C)(C)C)[C@@H](C(=O)O)N(C(=O)OC(C)C)[C@H]1c1ccccc1OC [II-134] | 1 to 10 | 1 to 10 | +++ (≥350) | > 200
2 | COc1cc(C(C)(C)C)ccc1CN[C@H]1[C@H](C(C)(C)C)[C@@H](C(=O)O)N(C(=O)OC(C)C)[C@H]1c1ccccc1OC [II-135] | 1 to 10 | 1 to 10 | +++ (≥350) | 100 to 200
3 | COc1ccc(C(F)(F)F)cc1CN[C@H]1[C@H](C(C)(C)C)[C@@H](C(=O)O)N(C(=O)OC(C)C)[C@H]1c1ccccc1OC [II-136] | 1 to 10 | 1 to 10 | +++ (≥350) | 100 to 200
4 | COc1ccc(Cl)cc1CN[C@H]1[C@H](C(C)(C)C)[C@@H](C(=O)O)N(C(=O)OC(C)C)[C@H]1c1ccccc1OC [II-137] | 1 to 10 | 1 to 10 | +++ (≥350) | 100 to 200
5 | COc1cc(C)ccc1CN[C@H]1[C@H](C(C)(C)C)[C@@H](C(=O)O)N(C(=O)C2CCCCC2)[C@H]1c1cccnc1OC [II-138] | 1 to 10 | 1 to 10 | +++ (≥350) | 100 to 200
6 | CC(C)(C)[C@H]1[C@H](NCc2cc(Cl)ccc2OCC2CC2)[C@H](c2ccccc2)N(C(=O)C2CCCCC2)[C@@H]1C(=O)O [II-139] | 1 to 10 | 1 to 10 | ++ (≥150 and <350) | < 100
7 | COc1ccc(C(C)(C)C)cc1CN[C@H]1[C@H](C(C)(C)C)[C@@H](C(=O)O)N(C(=O)C2CCCCC2)[C@H]1c1ccccc1OC [II-140] | 1 to 10 | < 1 | +++ (≥350) | 100 to 200
8 | COc1cc(C(C)(C)C)ccc1CN[C@H]1[C@H](C(C)(C)C)[C@@H](C(=O)O)N(C(=O)C2CCCCC2)[C@H]1c1ccccc1OC [II-141] | 1 to 10 | < 1 | +++ (≥350) | 100 to 200
9 | Cc1c(N[C@H]2[C@H](C(C)(C)C)[C@@H](C(=O)O)N(C(=O)C3CCCCC3)[C@H]2c2ccccc2)c(Cl)nc2ccc(F)cc12 [II-144] | 1 to 10 | 1 to 10 | +++ (≥350) | 100 to 200
10 | CC(C)(C)[C@H]1[C@H](Nc2cc(C#N)cnc2Cl)[C@H](c2ccccc2)N(C(=O)C2CCCCC2)[C@@H]1C(=O)O [II-145] | 1 to 10 | 1 to 10 | +++ (≥350) | 100 to 200
11 | Cc1ccc(C#N)c(N[C@H]2[C@H](C(C)(C)C)[C@@H](C(=O)O)N(C(=O)C3CCCCC3)[C@H]2c2ccccc2)n1 [II-146] | 1 to 10 | 1 to 10 | +++ (≥350) | < 100
12 | COCc1cc(C)nc(N[C@H]2[C@H](C(C)(C)C)[C@@H](C(=O)O)N(C(=O)C3CCCCC3)[C@H]2c2ccccc2)c1C#N [II-147] | 1 to 10 | 1 to 10 | ++ (≥150 and <350) | < 100
13 | CC(C)(C)[C@H]1[C@H](Nc2cc(C(F)(F)F)cc(C(F)(F)F)c2)[C@H](c2ccccc2)N(C(=O)C2CCCCC2)[C@@H]1C(=O)O [II-148] | < 1 | < 1 | +++ (≥350) | 100 to 200
14 | COc1cc(C(F)(F)F)ccc1CN[C@H]1[C@H](C(C)(C)OC)[C@@H](C(=O)O)N(C(=O)C2CCCCC2)[C@H]1c1ccccc1 [II-150] | 1 to 10 | < 1 | +++ (≥350) | > 200
15 | COc1cc(C(F)(F)F)ccc1CN[C@H]1[C@H](C(C)(C)C)[C@@H](C(=O)O)N(C(=O)c2ccccc2)[C@H]1c1ccccc1 [II-152] | 1 to 10 | 1 to 10 | +++ (≥350) | < 100
16 | COc1ccc(C(C)(C)C)cc1CN[C@H]1[C@H](C(C)(C)C)[C@@H](C(=O)O)N(C(=O)C2CCCCS2(=O)=O)[C@H]1c1ccccc1 (stereo partly drawn) [II-153] | 1 to 10 | 1 to 10 | +++ (≥350) | > 200
17 | COc1ccc(C(C)(C)C)cc1CN[C@H]1[C@H](C(C)(C)C)[C@@H](C(=O)O)N(S(=O)(=O)c2ccn(C)n2)[C@H]1c1ccccc1 [II-154] | 1 to 10 | 1 to 10 | +++ (≥350) | 100 to 200
18 | COc1ccc(C(F)(F)F)cc1CN[C@H]1[C@H](C(C)(C)C)[C@@H](C(=O)O)N(S(=O)(=O)c2ccccc2)[C@H]1c1ccccc1 [II-155] | 1 to 10 | 1 to 10 | ++ (≥150 and <350) | < 100

Row | SMILES | EC50 [1] [µM] | EC50 [2] [µM] | Maximum % activity (with co-corrector) | Emax [%]
19 | COc1ccc(C(F)(F)F)cc1CN[C@H]1[C@H](C(C)(C)C)[C@@H](C(=O)O)N(C(=O)C2COc3ccccc3O2)[C@H]1c1ccccc1 (stereo partly drawn) [II-156] | 1 to 10 | 1 to 10 | ++ (≥150 and <350) | < 100
20 | COc1ncc(C(C)C)cc1CN[C@H]1[C@H](C(C)(C)C)[C@@H](C(=O)O)N(C(=O)C2CCCCC2)[C@H]1c1ccccc1 [II-157] | 1 to 10 | < 1 | +++ (≥350) | > 200
21 | COc1ncc(Br)cc1CN[C@H]1[C@H](C(C)(C)C)[C@@H](C(=O)O)N(C(=O)C2CCCCC2)[C@H]1c1ccccc1 [II-158] | < 1 | < 1 | +++ (≥350) | 100 to 200
22 | COC(=O)[C@H](C)Cc1cnc(OC)c(CN[C@H]2[C@H](C(C)(C)C)[C@@H](C(=O)O)N(C(=O)C3CCCCC3)[C@H]2c2ccccc2)c1 [II-159] | 1 to 10 | 1 to 10 | ++ (≥150 and <350) | < 100
23 | COc1ccc(-c2ccccc2)cc1CN[C@H]1[C@H](C(C)(C)C)[C@@H](C(=O)O)N(C(=O)OC(C)C)[C@H]1c1ccccc1 [II-160] | 1 to 10 | < 1 | +++ (≥350) | > 200
24 | COc1cc(C(F)(F)F)ccc1CN[C@H]1[C@H](C(C)(C)C)[C@@H](C(=O)O)N(C(=O)OCC(C)C)[C@H]1c1ccccc1 [II-161] | 1 to 10 | < 1 | +++ (≥350) | 100 to 200
25 | COc1ccc(C(C)(C)C)cc1CN[C@H]1[C@H](C(C)(C)C)[C@@H](C(=O)O)N(C(=O)CC2CCOCC2)[C@H]1c1ccccc1 [II-162] | 1 to 10 | 1 to 10 | +++ (≥350) | 100 to 200
26 | COc1ccc(C(F)(F)F)cc1CN[C@H]1[C@H](C(C)(C)C)[C@@H](C(=O)O)N(C(=O)C2CCc3ccccc3O2)[C@H]1c1ccccc1 (stereo partly drawn) [II-163] | 1 to 10 | < 1 | +++ (≥350) | < 100
27 | COc1ccc(C(C)(C)C)cc1CN[C@H]1[C@H](C(C)(C)C)[C@@H](C(=O)O)N(C(=O)C2OCCc3ccccc32)[C@H]1c1ccccc1 (stereo partly drawn) [II-165] | 1 to 10 | < 1 | +++ (≥350) | > 200
28 | CC(C)c1ccccc1CN[C@H]1[C@H](C(C)(C)C)[C@@H](C(=O)O)N(C(=O)C2CCCCC2)[C@H]1c1ccccc1 [II-166] | < 1 | < 1 | +++ (≥350) | 100 to 200
29 | CC(C)(C)[C@H]1[C@H](NC2CCOc3ccc(Cl)cc32)[C@H](c2ccccc2)N(C(=O)C2CCCCC2)[C@@H]1C(=O)O (stereo partly drawn) [II-167] | 1 to 10 | 1 to 10 | ++ (≥150 and <350) | < 100
30 | COc1ccc(C(C)C)cc1CN[C@H]1[C@H](C(C)(C)C)[C@@H](C(=O)O)N(C(=O)C2CCCCC2)[C@H]1c1ccccc1 [II-168] | 1 to 10 | < 1 | +++ (≥350) | > 200
31 | COc1ccc(C(C)C)cc1CN[C@H]1[C@H](C(C)(C)C)[C@@H](C(=O)O)N(C(=O)OC(C)C)[C@H]1c1ccccc1 [II-169] | 1 to 10 | 1 to 10 | +++ (≥350) | > 200
32 | COc1ncc(Br)cc1CN[C@H]1[C@H](C(C)(C)C)[C@@H](C(=O)O)N(C(=O)OC(C)C)[C@H]1c1ccccc1 [II-170] | 1 to 10 | 1 to 10 | +++ (≥350) | > 200
33 | COc1ccc(Br)cc1CN[C@H]1[C@H](C(C)(C)C)[C@@H](C(=O)O)N(C(=O)OC(C)C)[C@H]1c1ccccc1 [II-171] | 1 to 10 | 1 to 10 | +++ (≥350) | > 200
34 | CCn1c(C)c(CC(=O)N2[C@H](C(=O)O)[C@@H](C(C)(C)C)[C@H](NCc3cc(C(C)(C)C)ccc3OC)[C@@H]2c2ccccc2)c2ccccc21 [II-172] | 1 to 10 | < 1 | +++ (≥350) | > 200
35 | COc1ccc(C(C)(C)C)cc1CN[C@H]1[C@H](C(C)(C)C)[C@@H](C(=O)O)N(C(=O)[C@H]2C[C@H](CCC#N)C[C@H]2C)[C@H]1c1ccccc1 [II-173] | 1 to 10 | 1 to 10 | +++ (≥350) | > 200
36 | COc1ccc(C(C)(C)C)cc1CN[C@H]1[C@H](C(C)(C)C)[C@@H](C(=O)O)N(C(=O)C2CC(C)CCO2)[C@H]1c1ccccc1 (stereo partly drawn) [II-174] | 1 to 10 | 1 to 10 | +++ (≥350) | > 200
